As a reminder, the pIC50 is −log10 of the IC50, conventionally taken in molar units. The low end stands for a high IC50, the high end for a low IC50.

The source of these data is patent US20260209249A1, “NOVEL TRICYCLIC COMPOUND AS KRAS G12D INHIBITOR, AND USE THEREOF” (SK Biopharmaceuticals Co., priority 2022, published 2026).

The target in test [1] is T1, GDP-KRAS G12D mutant protein (Homo sapiens, UniProt P01116, G12D).
T1 construct: purchased Daegu Gyeongbuk Medical Innovation Foundation (DGMIF), made to order
The experiment in a line: Differential scanning fluorimetry (DSF) binding affinity to GDP-KRAS G12D mutant protein. The conditions noted are these: DSF thermal shift, 10 μM compound, 4 μg KRAS protein. The method, boiled down: (§1)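 Thermal shift ΔTm was measured at 10 μM compound over a 25–99 °C ramp (0.05 °C/s), read at 580 nm ex/623 nm em with SYPRO Orange (2×). The protein (4 μg) was preincubated with compound for 30 min at room temperature, in 50 mM HEPES pH 7.5 for GppNHp-KRAS G12D or in kit buffer for GDP-KRAS G12D.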
For orientation: In DSF a fluorescence change marks the thermal transition of the protein.

In test [2] the target is T2, GppNHp-KRAS G12D mutant protein (Homo sapiens, UniProt P01116, G12D).
T2 construct: purchased Daegu Gyeongbuk Medical Innovation Foundation (DGMIF), made to order
The experiment in a line: Differential scanning fluorimetry (DSF) binding affinity to GppNHp-KRAS G12D mutant protein. The following applies: DSF thermal shift, 10 μM compound, 4 μg KRAS protein, 50 mM HEPES (pH 7.5). The method, boiled down: as §1

Test [3] deals with ERK phosphorylation (pERK) induced by KRAS G12D mutation. Description: Inhibitory activity against ERK phosphorylation (pERK) induced by KRAS G12D mutation, immunofluorescence assay in AsPC-1 cells. It counts as cell-based. The conditions noted are these: Homo sapiens, ASPC1, 3 h drug treatment, pERK (Thr202/Tyr204) signal normalized to DAPI. The method, boiled down: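 AsPC-1 cells attached 16 h, then treated 3 h with 3-fold dilutions from 10 μM top. Fixed, permeabilized, immunostained for pERK (Thr202/Tyr204) with Alexa 488 secondary; high-content imaging, signal normalized to DAPI and to DMSO, IC50 from four-parameter fit.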

Test [4] concerns KRAS G12D mutant pancreatic cancer cell line AsPC-1. Description: Cell viability assay using KRAS G12D mutant cells (AsPC-1, 3D culture, celltiter-glo 3D). The class given is cell-based. The conditions noted are these: Homo sapiens, ASPC1, 5th day after compound treatment. The method, boiled down: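 AsPC-1 cells in 3D culture, 1000 cells/well, treated next day with 1/5 serial dilutions from 10 μM or 50 μM, 1:1 v/v. Viability read by CellTiter-Glo 3D on day 5, normalized to DMSO (100%) and untreated backgrounds; IC50 from four-parameter sigmoidal fit.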

pIC50: −log10 of the molar value.

Regarding `C#Cc1c(F)ccc2cc(O)cc(-c3c(F)c4nc(OCC5(CN6CCC7(CC6)CC7(F)F)CC5)nc(N5C[C@H]6CC[C@@H](C5)N6)c4c4cc(C)oc34)c12` [Example 59, 4-(1-((1R,5S)-3,8-diazabicyclo[3.2.1]octan-3-yl)-3-((1-((1,1-difluoro-6-azaspiro[2.5]octan-6-yl)methyl)cyclopropyl)methoxy)-5-fluoro-8-methylfuro[3,2-n]quinazolin-6-yl)-5-ethynyl-6-fluoronaphthalen-2-ol], the “GDP-KRAS G12D (ΔTmD, ° C.)” value in test [1] turned out to be 12.88 °C. Moreover, the “GppNHp-KRAS G12D (ΔTmD, ° C.)” value in test [2] was determined as 6.06 °C. The pIC50 in test [3] was 7.27; in test [4], 7.16.

As to `C#Cc1c(F)ccc2cc(O)cc(-c3c(F)c4nc(OC[C@]56CC(=C)CN5C[C@@H](F)C6)nc(N5C[C@H]6CC[C@@H](C5)N6)c4c4cc(C)oc34)c12` [Example 65, 4-(1-((1R,5S)-3,8-diazabicyclo[3.2.1]octan-3-yl)-5-fluoro-3-(((2S,7aR)-2-fluoro-6-methylenetetrahydro-1H-pyrrolizin-7a(5H)-yl)methoxy)-8-methylfuro[3,2-f]quinazolin-6-yl)-5-ethynyl-6-fluoronaphthalen-2-ol], the “GDP-KRAS G12D (ΔTmD, ° C.)” value in test [1] came to 14.23 °C. For the same compound, the “GppNHp-KRAS G12D (ΔTmD, ° C.)” value in test [2] came out at 8.60 °C. Besides, the negative-log IC50 (pIC50) in test [3] was 8.40; in test [4] it was 8.30.

For `C#Cc1c(F)ccc2cc(O)cc(-c3cc4nc(OC[C@@]56CCCN5C[C@H](F)C6)nc(N5C[C@H]6CC[C@@H](C5)N6)c4c4cn(C)nc34)c12` [Example 69, 4-(9-((1R,5S)-3,8-diazabicyclo[3.2.1]octan-3-yl)-7-(((2R,7aS)-2-fluorotetrahydro-1H-pyrrolizin-7a(5H)-yl)methoxy)-2-methyl-2H-pyrazolo[4,3-f]quinazolin-4-yl)-5-ethynyl-6-fluoronaphthalen-2-ol], in test [1], the “GDP-KRAS G12D (ΔTmD, ° C.)” value came out at 11.68 °C. In test [2], the “GppNHp-KRAS G12D (ΔTmD, ° C.)” value was found to be 7.24 °C. For the same compound, the results for the pIC50 in test [3] and in test [4] were 6.77 and 6.72, respectively.

In the case of `C#Cc1c(F)ccc2cc(O)cc(-c3cc4nc(OCC5(CN6CCC7(CC6)CC7(F)F)CC5)nc(N5C[C@H]6CC[C@@H](C5)N6)c4c4cn(C)nc34)c12` [Example 73, 4-(9-((1R,5S)-3,8-diazabicyclo[3.2.1]octan-3-yl)-7-((1-((1,1-difluoro-6-azaspiro[2.5]octan-6-yl)methyl)cyclopropyl)methoxy)-2-methyl-2H-pyrazolo[4,3-f]quinazolin-4-yl)-5-ethynyl-6-fluoronaphthalen-2-ol], in test [1], the “GDP-KRAS G12D (ΔTmD, ° C.)” value worked out at 11.97 °C. Also, the “GppNHp-KRAS G12D (ΔTmD, ° C.)” value in test [2] is 5.60 °C. Also, the pIC50 in test [3] is 7.31; in test [4], 7.43.

As to `C#Cc1c(F)ccc2cc(N)cc(-c3cc4nc(OC[C@@]56CCCN5C/C(=C\F)C6)nc(N5C[C@H]6CC[C@@H](C5)N6)c4c4cn(C)nc34)c12` [Example 74, 4-(9-((1R,5S)-3,8-diazabicyclo[3.2.1]octan-3-yl)-7-(((S,Z)-2-(fluoromethylene)tetrahydro-1H-pyrrolizin-7a(5H)-yl)methoxy)-2-methyl-2H-pyrazolo[4,3-f]quinazolin-4-yl)-5-ethynyl-6-fluoronaphthalen-2-amine], the “GDP-KRAS G12D (ΔTmD, ° C.)” value in test [1] was determined as 7.82 °C. In test [2], the “GppNHp-KRAS G12D (ΔTmD, ° C.)” value turned out to be 5.30 °C. For the same compound, the results for the negative logarithm of the IC50 (pIC50) in test [3] and in test [4] were 6.84 and 6.96, respectively.

On to `C#Cc1c(F)ccc2cc(O)cc(-c3cc4nc(OC[C@@]56CCCN5C/C(=C\F)C6)nc(N5C[C@H]6CC[C@@H](C5)N6)c4c4cn(C)nc34)c12` [Example 75, 4-(9-((1 R,5S)-3,8-diazabicyclo[3.2.1]octan-3-yl)-7-(((S,Z)-2-(fluoromethylene)tetrahydro-1H-pyrrolizin-7a(5H)-yl)methoxy)-2-methyl-2H-pyrazolo[4,3-f]quinazolin-4-yl)-5-ethynyl-6-fluoronaphthalen-2-ol], for which, in test [1], the “GDP-KRAS G12D (ΔTmD, ° C.)” value was found to be 13.74 °C. In test [2], the “GppNHp-KRAS G12D (ΔTmD, ° C.)” value was determined as 9.60 °C. The negative-log IC50 (pIC50) is 7.70 in test [3] and 7.47 in test [4].

In the case of `C#Cc1c(F)ccc2cc(O)cc(-c3c(F)c4nc(OC[C@@]56CCCN5C[C@H](F)C6)nc(N5C[C@H]6CC[C@@H](C5)N6)c4c4cn(C)nc34)c12` [Example 80, 4-(9-((1R,5S)-3,8-diazabicyclo[3.2.1]octan-3-yl)-5-fluoro-7-(((2R,7aS)-2-fluorotetrahydro-1H-pyrrolizin-7a(5H)-yl)methoxy)-2-methyl-2H-pyrazolo[4,3-n]quinazolin-4-yl)-5-ethynyl-6-fluoronaphthalen-2-ol], the “GDP-KRAS G12D (ΔTmD, ° C.)” value in test [1] was determined as 14.81 °C. Moreover, the “GppNHp-KRAS G12D (ΔTmD, ° C.)” value in test [2] worked out at 11.13 °C. In addition, the results for the pIC50 in test [3] and in test [4] were 7.46 and 7.34, respectively.

`C#Cc1c(F)ccc2cc(N)cc(-c3c(F)c4nc(OC[C@@]56CCCN5C[C@H](F)C6)nc(N5C[C@H]6CC[C@@H](C5)N6)c4c4cn(C)nc34)c12` [Example 81, 4-(9-((1R,5S)-3,8-diazabicyclo[3.2.1]octan-3-yl)-5-fluoro-7-(((2R,7aS)-2-fluorotetrahydro-1H-pyrrolizin-7a(5H)-yl)methoxy)-2-methyl-2H-pyrazolo[4,3-n]quinazolin-4-yl)-5-ethynyl-6-fluoronaphthalen-2-amine]: the “GDP-KRAS G12D (ΔTmD, ° C.)” value in test [1] was found to be 10.04 °C. Also, the “GppNHp-KRAS G12D (ΔTmD, ° C.)” value in test [2] worked out at 6.66 °C. In addition, the values for the pIC50 in test [3] and in test [4] were 7.09 and 6.55, respectively.

Take `CCc1c(F)ccc2cc(O)cc(-c3c(F)c4nc(OC[C@@]56CCCN5C/C(=C\F)C6)nc(N5C[C@H]6CC[C@@H](C5)N6)c4c4cn(C)nc34)c12` [Example 85, 4-(9-((1R,5S)-3,8-diazabicyclo[3.2.1]octan-3-yl)-5-fluoro-7-(((S,Z)-2-(fluoromethylene)tetrahydro-1H-pyrrolizin-7a(5H)-yl)methoxy)-2-methyl-2H-pyrazolo[4,3-f]quinazolin-4-yl)-5-ethyl-6-fluoronaphthalen-2-ol]: the “GDP-KRAS G12D (ΔTmD, ° C.)” value in test [1] amounted to 15.24 °C. For the same compound, the “GppNHp-KRAS G12D (ΔTmD, ° C.)” value in test [2] amounted to 12.43 °C. Moreover, the negative logarithm of the IC50 (pIC50) in test [3] was 8.15; in test [4], 7.96.

As for `Cn1cc2c(n1)c(-c1cc(O)cc3ccc(F)c(F)c13)c(F)c1nc(OC[C@@]34CCCN3C/C(=C\F)C4)nc(N3C[C@H]4CC[C@@H](C3)N4)c12` [Example 86, 4-(9-((1R,5S)-3,8-diazabicyclo[3.2.1]octan-3-yl)-5-fluoro-7-(((S,Z)-2-(fluoromethylene)tetrahydro-1H-pyrrolizin-7a(5H)-yl)methoxy)-2-methyl-2H-pyrazolo[4,3-f]quinazolin-4-yl)-5,6-difluoronaphthalen-2-ol], the “GDP-KRAS G12D (ΔTmD, ° C.)” value in test [1] is 13.07 °C. The “GppNHp-KRAS G12D (ΔTmD, ° C.)” value in test [2] was 10.69 °C. In addition, the negative-log IC50 (pIC50) was 7.54 in test [3] and 7.32 in test [4].

Turning to `C#Cc1c(F)ccc2cc(O)cc(-c3c(F)c4nc(OCC5(CN6CCC7(CC6)CC7(F)F)CC5)nc(N5C[C@H]6CC[C@@H](C5)N6)c4c4cn(C)nc34)c12` [Example 87, 4-(9-((1R,5S)-3,8-diazabicyclo[3.2.1]octan-3-yl)-7-((1-((1,1-difluoro-6-azaspiro[2.5]octan-6-yl)methyl)cyclopropyl)methoxy)-5-fluoro-2-methyl-2H-pyrazolo[4,3-f]quinazolin-4-yl)-5-ethynyl-6-fluoronaphthalen-2-ol], in test [1], the “GDP-KRAS G12D (ΔTmD, ° C.)” value is 14.94 °C. Further, in test [2], the “GppNHp-KRAS G12D (ΔTmD, ° C.)” value stood at 8.86 °C. Also, the values for the negative-log IC50 (pIC50) in test [3] and in test [4] were 8.40 and 7.96, respectively.

On to `C#Cc1c(F)ccc2cc(O)cc(-c3c(F)c4nc(OC[C@@]56CCCN5C[C@H](F)C6)nc(N5CC6CCC5CN6)c4c4cn(C)nc34)c12` (stereo partly drawn) [Example 88, 4-(9-(2,5-diazabicyclo[2.2.2]octan-2-yl)-5-fluoro-7-(((2R,7aS)-2-fluorotetrahydro-1H-pyrrolizin-7a(5H)-yl)methoxy)-2-methyl-2H-pyrazolo[4,3-n]quinazolin-4-yl)-5-ethynyl-6-fluoronaphthalen-2-ol], for which the “GDP-KRAS G12D (ΔTmD, ° C.)” value in test [1] was determined as 6.35 °C. Also, the “GppNHp-KRAS G12D (ΔTmD, ° C.)” value in test [2] is 5.31 °C. Moreover, the negative-log IC50 (pIC50) in test [3] was 6.32; in test [4], 6.13.

`C#Cc1c(F)ccc2cc(O)cc(-c3c(F)c4nc(OC[C@@]56CCCN5CC(=C(F)F)C6)nc(N5C[C@H]6CC[C@@H](C5)N6)c4c4cn(C)nc34)c12` [Example 90, 4-(9-((1R,5S)-3,8-diazabicyclo[3.2.1]octan-3-yl)-7-(((S)-2-(difluoromethylene)tetrahydro-1H-pyrrolizin-7a(5H)-yl)methoxy)-5-fluoro-2-methyl-2H-pyrazolo[4,3-f]quinazolin-4-yl)-5-ethynyl-6-fluoronaphthalen-2-ol]: in test [1], the “GDP-KRAS G12D (ΔTmD, ° C.)” value was 16.27 °C. The “GppNHp-KRAS G12D (ΔTmD, ° C.)” value in test [2] worked out at 11.38 °C. The figures for the pIC50 in test [3] and in test [4] were 8.30 and 8.40, respectively.
